Earlier results as cited in US20190328656A1, “TARGETED DELIVERY OF PROGESTINS AND ESTROGENS VIA VAGINAL RING DEVICES FOR FERTILITY CONTROL AND HRT PRODUCTS” (Evestra, Inc., priority 2018, published 2019).

Columns and labels:
[1] = elimination from the blood stream
[2] = compared to estriol

Compound	half-life [1]	estrogenic activity [2]
C[C@]12CC[C@@H]3c4ccc(O)cc4CC[C@H]3[C@@H]1CC[C@@H]2O [17-beta estradiol]	around 1 hour	
C[C@]12CC[C@@H]3c4ccc(O)cc4CC[C@H]3[C@@H]1[C@@H](O)[C@@H](O)[C@@H]2O [Estetrol]		very weak estrogenic activity
